Values quoted from earlier work, collected in article PMC2600787, “Flanking p10 contribution and sequence bias in matrix based epitope prediction: revisiting the assumption of independent binding pockets” (BMC Structural Biology, 2008).

Tested on: HLA-DR1
Design: method as in 2 sources, ref Geluk et al. [32] ||| ref [32] = [32]; PMID 9753297; doi:10.2337/diabetes.47.10.1594; Geluk A van Meijgaarden KE Schloot NC Drijfhout JW Ottenhoff TH Roep BO HLA-DR binding analysis of peptides from islet antigens in IDDM Diabetes 1998 47 1594 1601 9753297 10.2337/diabetes.47.10.1594; pIC50exp: unit not given here
Conditions: according to IC50 binding measurements; ref [32]
Excerpt: Anchor residues at dominant pockets p1, p4, p6 and p9 are as expected for DR1 [12].

binding to DR1 (in words) | Substance
strong binder | SCSKVDVNYAFLHATDLLPA [peptide 9, 20-mer peptide from GAD65]

Same assay, conditions: experimental binding affinity to HLA-DR1; logarithmic transform of IC50; 20-mer peptides from GAD65 (1 through 100) and ICA69 (101 and above), pruned to remove poor binders; ref Geluk et al. [32]

pIC50exp | Substance
0.22 | DPDLYKQMEKFRKVQTQVRL [peptide 119, 20-mer peptide from ICA69]
-0.77 | YVVKSFDRSTKVIDFHYPNE [peptide 13, 20-mer peptide from GAD65]
1.10 | 115: 20-mer peptide from ICA69 (VETFRHRAISDTWLTVNRME) [compound 115]
0.10 | AIHESFKGYQPYEFTTLKSL [peptide 126, 20-mer peptide from ICA69]
-0.60 | LQDVMNILLQYVVKSFDRST [peptide 12, 20-mer peptide from GAD65]
1.10 | QCRTEYRGALLWMKDVSQEL [peptide 117, 20-mer peptide from ICA69]

More lines, now with the values behind:

Substance | pIC50exp
RKESSSFKTEDGKSILSALD [peptide 132, 20-mer peptide from ICA69] | 0.52
SVVNKMQQRYWETKQAFIKA [peptide 103, 20-mer peptide from ICA69] | 1.00
MASPGSGFWSFGSEDGSGDS [peptide 1, 20-mer peptide from GAD65] | -0.70
LVSATAGTTVYGAFDPLLAV [peptide 33, 20-mer peptide from GAD65] | 0.05
SCSKVDVNYAFLHATDLLPA [peptide 9, 20-mer peptide from GAD65] | 1.52
FRKVQTQVRLAKKNFDKLKM [peptide 120, 20-mer peptide from ICA69] | 0.00

Biological target: HLA-DRB3*0101 (HLA-DR52a) (Homo sapiens, UniProt P01903+P79483)
Conditions: earlier structural and binding studies; crystallography CSP, unpublished; ref not given
Excerpt: Results from structural and binding studies using the peptide […] in complex with HLA-DRB3*0101 (HLA-DR52a) show a contribution from position p10. 24-[…]-39, from the N-terminus of human […] is a major ligand of DR52a. A natural variant of the epitope widely distributed in the population is 24-[…]-39. The Leu33/Pro33 dimorphism is the basis of the unidirectional alloimmune posttransfusion thrombocytopenia purpura (PTP) and fetal-maternal alloimmune thrombocytopenia (FMAIT), severe blood disorders in some DR52a subjects homozygous in Pro33 [[2 ...

binding to DR52a (in words) | Substance
does not bind | AWCSDEALPPGS [shorter Pro33 integrin peptide]
has been demonstrated to bind | AWCSDEALPPLS [Pro33 integrin peptide with leucine replacing glycine at position 10]

Continued, substance first:

Substance | binding to DR52a (in words)
AWCSDEALPLGSPRCD [peptide from the N-terminus of human integrin α2βIIIa, a major ligand of DR52a] | major ligand
AWCSDEALPPGSPRCD | does not bind
